From article PMC4109680, “Identification and Preclinical Pharmacology of the γ-Secretase Modulator BMS-869780” (International Journal of Alzheimer's Disease, 2014)

System: Aβ peptides (H4-APPsw)
Experiment: Aβ peptide profile in H4-APPsw cultures by MALDI-TOF mass spectrometry and urea gel western blot
Format: cell-based, human
Experimental: For western blotting of Aβ peptides from H4-APPsw cell cultures, Aβ was immunoprecipitated directly from the cell culture medium and was eluted from the protein G beads by addition of lithium dodecyl sulfate (LDS) electrophoresis sample buffer (Invitrogen). Aβ peptides were separated by gel electrophoresis in the presence of 8 M urea, transferred to PVDF membrane, and detected by western blotting using monoclonal 26D6-HRP conjugate.
H4-APPsw cell cultures were grown in T-75 flasks until 75% confluent and rinsed with Dulbecco's phosphate buffered saline (DPBS; Gibco cat number 14109), and 20 mL of DMEM supplemented with L-glutamine (2 mM), geneticin, penicillin, streptomycin, and DMSO with or without BMS-869780 was added (final concentration of DMSO was 0.2%). After incubation for 24 hours at 37°C in 5% CO2, culture medium was removed, centrifuged to remove cells, and frozen in aliquots at −80°C. For immunoprecipitation, aliquots of cell medium (4 mL) were thawed, followed by the addition of protease inhibitor cocktail (Sigma P-8340) to a final concentration of 1%, 60 ng of [^15N]-Aβ1-40 synthetic peptide (rPeptide, 1101-1, Athens, GA), 30 μg of monoclonal 26D6, and 15 μg of monoclonal 4G8. After incubation for 20 min on ice, 80 μL of protein G agarose beads (Pierce Rockford, IL) was added, and incubation was continued overnight at 4°C. […]
Figure 3 BMS-869780 increased the levels of the shorter peptides Aβ1-38 and Aβ1-37. (a) Top panel: an equimolar mix of synthetic peptides Aβ1-37, Aβ1-38, Aβ1-39, Aβ1-40, [^15N]-Aβ1-40, and Aβ1-42 was evaluated by MALDI-TOF mass spectrometry. H4-APPsw cell cultures were treated with vehicle (0.1% DMSO—middle panel) or BMS-869780 (100 nM—bottom panel), [^15N]-Aβ1-40 was added, and Aβ peptides were immunoprecipitated and evaluated by MALDI-TOF mass spectrometry. […] Aβ peptides were separated by gel electrophoresis in the presence of urea and detected by western blotting. […]

Structure (SMILES): COc1cc(Nc2nc3n(n2)CCCC[C@H]3c2ccc(F)cc2)ccc1-n1cnc(Cl)c1 [BMS-869780]
- Aβ1-37 and Aβ1-38 levels by MALDI mass spectrometry (100 nM): dramatically increased
- Aβ1-40 and Aβ1-42 levels by MALDI mass spectrometry (100 nM): essentially undetectable
- Aβ1-37 and Aβ1-38 levels by western blot (100 nM and 10 nM): Increased levels
